# Laboratory results: patent US12662465B2, “EGFR inhibitors” (Blueprint Medicines Corporation, priority 2021, dated 2026)
# Read-outs that look alike come from different tables or passages of the source.
# Tests used:
# EGFR L858R = target: T1, EGFR L858R (Homo sapiens, UniProt P00533, L858R); test: Biochemical EGFR inhibition assay (Caliper mobility shift), EGFR L858R; details: read-out: Enz EGFR_L858R IC50
# T1 construct: purchased SignalChem E10-122BG
# EGFR (d746-750) = target: T2, EGFR (d746-750) (Homo sapiens, UniProt P00533, DEL746-750); test: Biochemical EGFR inhibition assay (Caliper mobility shift), EGFR (d746-750); details: read-out: Enz EGFR_Exon19-del746-750 IC50
# T2 construct: purchased SignalChem E10-122JG
# [1] = target: intracellular phosphorylation of EGFR (Tyr1068) in PC-9 cells (Ex19Del) (Homo sapiens, UniProt P00533, DEL746-750); test: PC-9 pEGFR AlphaLISA assay; type: cell-based; details: 4 hours compound incubation, read-out: Ext pEGFR_PC-9 Ex19Del IC50
# [2] = 1.0 mM ATP or ATP Km, room temperature (25° C.)
# T1 sequence (P00533 25-1210 L858R): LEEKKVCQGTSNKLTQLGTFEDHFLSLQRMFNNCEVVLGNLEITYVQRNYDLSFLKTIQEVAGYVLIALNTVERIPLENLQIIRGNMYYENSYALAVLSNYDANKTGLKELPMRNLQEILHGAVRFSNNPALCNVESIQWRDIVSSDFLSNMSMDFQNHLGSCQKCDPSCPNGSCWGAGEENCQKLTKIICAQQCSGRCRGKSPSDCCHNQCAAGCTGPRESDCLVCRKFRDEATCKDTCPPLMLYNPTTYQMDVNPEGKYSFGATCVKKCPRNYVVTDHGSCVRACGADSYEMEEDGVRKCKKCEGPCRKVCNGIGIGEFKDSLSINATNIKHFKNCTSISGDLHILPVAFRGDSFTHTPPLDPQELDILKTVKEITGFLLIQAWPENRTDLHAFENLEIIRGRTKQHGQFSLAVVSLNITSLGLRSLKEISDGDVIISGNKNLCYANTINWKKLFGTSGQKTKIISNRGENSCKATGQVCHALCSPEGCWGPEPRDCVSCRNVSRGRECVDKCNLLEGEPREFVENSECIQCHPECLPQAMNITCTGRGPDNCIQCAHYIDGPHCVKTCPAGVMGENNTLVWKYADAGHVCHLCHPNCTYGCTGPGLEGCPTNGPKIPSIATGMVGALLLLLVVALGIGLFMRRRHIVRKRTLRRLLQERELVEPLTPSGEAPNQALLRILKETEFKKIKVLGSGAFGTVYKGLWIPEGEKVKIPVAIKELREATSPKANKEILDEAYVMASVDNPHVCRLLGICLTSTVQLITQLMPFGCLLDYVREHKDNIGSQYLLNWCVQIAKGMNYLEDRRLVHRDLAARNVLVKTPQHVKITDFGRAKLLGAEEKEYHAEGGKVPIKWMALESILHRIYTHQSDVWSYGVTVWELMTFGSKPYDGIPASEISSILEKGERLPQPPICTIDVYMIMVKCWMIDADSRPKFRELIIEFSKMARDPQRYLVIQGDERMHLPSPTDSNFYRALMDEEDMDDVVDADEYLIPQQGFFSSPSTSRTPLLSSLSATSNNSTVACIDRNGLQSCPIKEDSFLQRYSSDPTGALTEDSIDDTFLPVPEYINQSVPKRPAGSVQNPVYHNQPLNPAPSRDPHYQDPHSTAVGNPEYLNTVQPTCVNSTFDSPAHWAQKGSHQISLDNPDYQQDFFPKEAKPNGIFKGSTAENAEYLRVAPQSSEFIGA
# Sequence of intracellular phosphorylation of EGFR (Tyr1068) in PC-9 cells (Ex19Del) (P00533 with tags, fused parts or gaps DEL746-750): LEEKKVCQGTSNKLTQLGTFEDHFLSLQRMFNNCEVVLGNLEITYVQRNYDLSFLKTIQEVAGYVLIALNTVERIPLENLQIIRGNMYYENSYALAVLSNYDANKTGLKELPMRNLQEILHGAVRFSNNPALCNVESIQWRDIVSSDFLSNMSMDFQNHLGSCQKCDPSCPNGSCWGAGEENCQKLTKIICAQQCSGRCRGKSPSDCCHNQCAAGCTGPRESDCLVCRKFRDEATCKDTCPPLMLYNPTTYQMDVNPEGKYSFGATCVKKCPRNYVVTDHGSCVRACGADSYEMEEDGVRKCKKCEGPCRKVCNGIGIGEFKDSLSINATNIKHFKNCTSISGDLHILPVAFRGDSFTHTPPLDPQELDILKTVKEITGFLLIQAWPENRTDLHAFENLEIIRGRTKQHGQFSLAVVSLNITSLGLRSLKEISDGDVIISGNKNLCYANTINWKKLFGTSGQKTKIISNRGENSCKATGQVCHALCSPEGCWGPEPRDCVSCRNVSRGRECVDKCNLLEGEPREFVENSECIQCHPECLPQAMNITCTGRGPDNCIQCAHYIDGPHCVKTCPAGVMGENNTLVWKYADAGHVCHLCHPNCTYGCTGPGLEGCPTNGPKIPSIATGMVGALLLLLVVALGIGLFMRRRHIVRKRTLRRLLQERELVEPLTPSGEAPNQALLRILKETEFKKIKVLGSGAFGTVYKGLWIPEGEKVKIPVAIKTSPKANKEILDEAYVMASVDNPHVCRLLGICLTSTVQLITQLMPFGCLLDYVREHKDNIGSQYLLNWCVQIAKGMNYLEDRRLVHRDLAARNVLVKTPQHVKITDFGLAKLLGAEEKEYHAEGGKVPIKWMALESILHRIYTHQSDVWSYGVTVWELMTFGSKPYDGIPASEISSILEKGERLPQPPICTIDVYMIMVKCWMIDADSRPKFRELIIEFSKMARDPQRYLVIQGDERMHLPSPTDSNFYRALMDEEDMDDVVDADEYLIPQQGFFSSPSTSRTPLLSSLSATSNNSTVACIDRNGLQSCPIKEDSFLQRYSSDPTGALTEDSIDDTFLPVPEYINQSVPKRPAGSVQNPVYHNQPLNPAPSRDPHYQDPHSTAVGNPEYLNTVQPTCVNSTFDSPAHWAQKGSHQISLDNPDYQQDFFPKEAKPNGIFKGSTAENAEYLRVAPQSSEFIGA
# T2 sequence (P00533 with tags, fused parts or gaps DEL746-750 limits assumed): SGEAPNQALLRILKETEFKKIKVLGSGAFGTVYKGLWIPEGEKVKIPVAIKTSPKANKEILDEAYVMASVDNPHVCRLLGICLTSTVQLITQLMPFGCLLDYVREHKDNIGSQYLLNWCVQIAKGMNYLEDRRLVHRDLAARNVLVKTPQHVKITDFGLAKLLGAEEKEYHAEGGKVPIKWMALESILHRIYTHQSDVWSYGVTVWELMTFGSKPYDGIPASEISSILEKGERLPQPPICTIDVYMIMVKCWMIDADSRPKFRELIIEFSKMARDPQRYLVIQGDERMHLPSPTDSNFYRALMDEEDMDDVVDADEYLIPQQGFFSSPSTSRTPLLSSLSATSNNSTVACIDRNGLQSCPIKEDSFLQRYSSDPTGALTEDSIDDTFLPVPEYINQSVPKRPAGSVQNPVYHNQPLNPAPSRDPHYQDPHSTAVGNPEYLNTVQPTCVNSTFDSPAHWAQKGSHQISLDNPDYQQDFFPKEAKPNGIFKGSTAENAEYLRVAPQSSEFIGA
IC50 [1] [nM],IC50 (EGFR L858R) [nM],IC50 (EGFR (d746-750)) [nM],SMILES,IC50 (EGFR L858R; [2]) [nM],IC50 (EGFR (d746-750); [2]) [nM]
10.1 to 50,–,–,"CN1CC[C@H](Oc2cc(-c3cnn(C)c3)cc3ncnc(Nc4ccc5ncccc5c4F)c23)[C@@H](F)C1 (single isomer, unassigned) [Example 144, 5-(((3S,4S)-3-fluoro-1-methylpiperidin-4-yl)oxy)-N-(5-fluoroquinolin-6-yl)-7-(1-methyl-1H-pyrazol-4-yl)quinazolin-4-amine or 5-(((3R,4R)-3-fluoro-1-methylpiperidin-4-yl)oxy)-N-(5-fluoroquinolin-6-yl)-7-(1-methyl-1H-pyrazol-4-yl)quinazolin-4-amine]",< 10,< 10
10.1 to 50,10.1 to 50,< 10,"CO[C@H]1CCN(c2cc3ncnc(Nc4ccc5ncccc5c4F)c3c(OC(C)CN(C)C)n2)C1 (stereo in doubt) [Example 77, 5—(((S)-1-(dimethylamino)propan-2-yl)oxy)-N-(5-fluoroquinolin-6-yl)-7-((S)-3-methoxypyrrolidin-1-yl)pyrido[4,3-d]pyrimidin-4-amine]",–,–
> 50.1,10.1 to 50,< 10,"CN(C)CC1(COc2cc(-c3cnn(C)c3)cc3ncnc(Nc4ccc5ncccc5c4F)c23)COC1 [Example 12, 5-((3-((dimethylamino)methyl)oxetan-3-yl)methoxy)-N-(5-fluoroquinolin-6-yl)-7-(1-methyl-1H-pyrazol-4-yl) quinazolin-4-amine]",–,–
≤ 10,< 10,< 10,"C[C@H](CN(C)C)Oc1cc(-c2cnn(C)c2)cc2ncnc(Nc3ccc4cccnc4c3)c12 [Example 13, (R)-5-((1-(dimethylamino)propan-2-yl)oxy)-7-(1-methyl-1H-pyrazol-4-yl)-N-(quinolin-7-yl)quinazolin-4-amine]",–,–
≤ 10,< 10,< 10,"C[C@H](CN(C)C)Oc1cc(-c2cnn(C)c2)cc2ncnc(Nc3cnc4ccccc4c3)c12 [Example 14, (R)-5-((1-(dimethylamino)propan-2-yl)oxy)-7-(1-methyl-1H-pyrazol-4-yl)-N-(quinolin-3-yl)quinazolin-4-amine]",–,–
≤ 10,–,–,"C[C@H](Oc1cc(-c2cnn(C)c2)cc2ncnc(Nc3ccc4ncccc4c3F)c12)C1CCOCC1 [Example 20, (S)—N-(5-fluoroquinolin-6-yl)-7-(1-methyl-1H-pyrazol-4-yl)-5-(1-(tetrahydro-2H-pyran-4-yl)ethoxy)quinazolin-4-amine. or (R)—N-(5-fluoroquinolin-6-yl)-7-(1-methyl-1H-pyrazol-4-yl)-5-(1-(tetrahydro-2H-pyran-4-yl)ethoxy)quinazolin-4-amine]",< 10,< 10
10.1 to 50,10.1 to 50,< 10,"CN(C)C1(COc2cc(-c3cnn(C)c3)cc3ncnc(Nc4ccc5ncccc5c4F)c23)COC1 [Example 21, 5-((3-(dimethylamino)oxetan-3-yl)methoxy)-N-(5-fluoroquinolin-6-yl)-7-(1-methyl-1H-pyrazol-4-yl)quinazolin-4-amine]",–,–
≤ 10,< 10,< 10,"CC[C@H](CN(C)C)Oc1cc(-c2cnn(C)c2)cc2ncnc(Nc3ccc4ncccc4c3F)c12 [Example 24, (R)-5-((1-(dimethylamino)butan-2-yl)oxy)-N-(5-fluoroquinolin-6-yl)-7-(1-methyl-1H-pyrazol-4-yl)quinazolin-4-amine]",–,–
10.1 to 50,< 10,< 10,"CN1CC[C@H](Oc2cc(-c3cnn(C)c3)cc3ncnc(Nc4ccc5ncccc5c4F)c23)C1=O [Example 25, (S)-3-((4-((5-fluoroquinolin-6-yl)amino)-7-(1-methyl-1H-pyrazol-4-yl)quinazolin-5-yl)oxy)-1-methylpyrrolidin-2-one]",–,–
≤ 10,< 10,< 10,"COC[C@@H](C)Oc1cc(-c2cnn(C)c2)cc2ncnc(Nc3ccc4ncccc4c3F)c12 [Example 31, (R)—N-(5-fluoroquinolin-6-yl)-5-((1-methoxypropan-2-yl)oxy)-7-(1-methyl-1H-pyrazol-4-yl)quinazolin-4-amine]",–,–
10.1 to 50,10.1 to 50,< 10,"CN(C)CCOc1cc(-c2cnn(C)c2)cc2ncnc(Nc3ccc4ncccc4c3F)c12 [Example 34, 5-(2-(dimethylamino)ethoxy)-N-(5-fluoroquinolin-6-yl)-7-(1-methyl-1H-pyrazol-4-yl)quinazolin-4-amine]",–,–
≤ 10,< 10,< 10,"C[C@H](CN(C)C)Oc1cc(N2CC3(COC3)C2)cc2ncnc(Nc3c(F)cc4ncccc4c3F)c12 [Example 39, (R)—N-(5,7-difluoroquinolin-6-yl)-5-((1-(dimethylamino)propan-2-yl)oxy)-7-(2-oxa-6-azaspiro[3.3]heptan-6-yl)quinazolin-4-amine]",–,–
≤ 10,10.1 to 50,< 10,"C[C@H](CN(C)C)Oc1cc(-c2cnn(C)c2)cc2ncnc(Nc3cnc4ncccc4c3)c12 [Example 40, (R)-5-((1-(dimethylamino)propan-2-yl)oxy)-7-(1-methyl-1H-pyrazol-4-yl)-N-(1,8-naphthyridin-3-yl)quinazolin-4-amine]",–,–
> 50.1,> 50.1,10.1 to 50,"C[C@H](CN(C)C)Oc1cc(-c2cnn(C)c2)cc2ncnc(Nc3ccc4nnccc4c3F)c12 [Example 41, (R)—N-(5-((1-(dimethylamino)propan-2-yl)oxy)-7-(1-methyl-1H-pyrazol-4-yl)quinazolin-4-yl)-5-fluorocinnolin-6-amine]",–,–

# More lines, now with the values behind:
SMILES,IC50 [1] [nM],IC50 (EGFR L858R) [nM],IC50 (EGFR (d746-750)) [nM],IC50 (EGFR L858R; [2]) [nM],IC50 (EGFR (d746-750); [2]) [nM]
"C[C@H](Oc1cc(-c2cnn(C)c2)cc2ncnc(Nc3ccc4ncccc4c3F)c12)[C@@H]1CCCN1C (single isomer, unassigned) [Example 145]",> 50.1,–,–,10.1 to 50,10.1 to 50
"C[C@H](Oc1cc(-c2cnn(C)c2)cc2ncnc(Nc3ccc4ncccc4c3F)c12)[C@@H]1CCCN1C (single isomer, unassigned) [Example 146]",≤ 10,–,–,< 10,< 10
"C[C@H](Oc1cc(-c2cnn(C)c2)cc2ncnc(Nc3ccc4ncccc4c3F)c12)[C@@H]1CCCN1C (single isomer, unassigned) [Example 147]",≤ 10,–,–,< 10,< 10
"C[C@H](Oc1cc(-c2cnn(C)c2)cc2ncnc(Nc3ccc4ncccc4c3F)c12)[C@@H]1CCCN1C (single isomer, unassigned) [Example 148]",> 50.1,–,–,10.1 to 50,10.1 to 50
"C[C@@H](Oc1cc(-c2cnn(C)c2)cc2ncnc(Nc3ccc4ncc(F)cc4c3)c12)C1COC1 [Example 3, (R)—N-(3-fluoroquinolin-6-yl)-7-(1-methyl-1H-pyrazol-4-yl)-5-(1-(oxetan-3-yl)ethoxy)quinazolin-4-amine]",≤ 10,< 10,< 10,–,–
"C[C@H](CN(C)C)Oc1cc(-c2cnn(C)c2)cc2ncnc(Nc3ccc4ncccc4c3F)c12 [Example 6, (R)-5-((1-(dimethylamino)propan-2-yl)oxy)-N-(5-fluoroquinolin-6-yl)-7-(1-methyl-1H-pyrazol-4-yl)quinazolin-4-amine]",≤ 10,< 10,< 10,–,–
"C[C@H](CN(C)C)Oc1cc(-c2cnn(C)c2)cc2ncnc(Nc3ccc4ncc(F)cc4c3)c12 [Example 7, (R)-5-((1-(dimethylamino)propan-2-yl)oxy)-N-(3-fluoroquinolin-6-yl)-7-(1-methyl-1H-pyrazol-4-yl)quinazolin-4-amine]",≤ 10,< 10,< 10,–,–
"C[C@@H](Oc1cc(-c2cnn(C)c2)cc2ncnc(Nc3c(F)cc4ncccc4c3F)c12)C1COC1 [Example 8, (R)—N-(5,7-difluoroquinolin-6-yl)-7-(1-methyl-1H-pyrazol-4-yl)-5-(1-(oxetan-3-yl)ethoxy)quinazolin-4-amine]",≤ 10,< 10,< 10,–,–
"C[C@@H](Oc1cc(-c2cnn(C)c2)cc2ncnc(Nc3cc(F)c4ncccc4c3F)c12)C1COC1 [Example 9, (R)—N-(5,8-difluoroquinolin-6-yl)-7-(1-methyl-1H-pyrazol-4-yl)-5-(1-(oxetan-3-yl)ethoxy)quinazolin-4-amine]",≤ 10,< 10,< 10,–,–
"C[C@H](CN(C)C)Oc1cc(-c2cnn(C)c2)cc2ncnc(Nc3cc(F)c4ncccc4c3F)c12 [Example 10, (R)—N-(5,8-difluoroquinolin-6-yl)-5-((1-(dimethylamino)propan-2-yl)oxy)-7-(1-methyl-1H-pyrazol-4-yl)quinazolin-4-amine]",≤ 10,< 10,< 10,–,–
"C[C@H](CN(C)C)Oc1cc(-c2cnn(C)c2)cc2ncnc(Nc3ccc4nnccc4c3)c12 [Example 11, (R)—N-(5-((1-(dimethylamino)propan-2-yl)oxy)-7-(1-methyl-1H-pyrazol-4-yl)quinazolin-4-yl)cinnolin-6-amine]",> 50.1,> 50.1,10.1 to 50,–,–
"CN1CCC[C@H](Oc2cc(-c3cnn(C)c3)cc3ncnc(Nc4ccc5ncccc5c4F)c23)C1 [Example 35, (S)—N-(5-fluoroquinolin-6-yl)-7-(1-methyl-1H-pyrazol-4-yl)-5-((1-methylpiperidin-3-yl)oxy)quinazolin-4-amine]",≤ 10,< 10,< 10,–,–
"CN1CCC[C@@H](Oc2cc(-c3cnn(C)c3)cc3ncnc(Nc4ccc5ncccc5c4F)c23)C1 [Example 36, (R)—N-(5-fluoroquinolin-6-yl)-7-(1-methyl-1H-pyrazol-4-yl)-5-((1-methylpiperidin-3-yl)oxy)quinazolin-4-amine]",10.1 to 50,10.1 to 50,< 10,–,–
